# How the values were obtained:
# [1] = target: T1, human progesterone receptor A (Homo sapiens, UniProt P06401); assay: Progesterone-receptor-antagonistic action in stably transfected SK-N-MC cells, MTV-LUC reporter (PR-A); format: cell-based; conditions: antagonistic potency vs 0.1 nmol/l promegestone, 24 hours, luciferase
# T1 construct: expressed in transfected cells; host or cells: SK-N-MC human neuroblastoma cells, stably transfected
# T1 sequence (P06401 1-769 isoform P06401-2): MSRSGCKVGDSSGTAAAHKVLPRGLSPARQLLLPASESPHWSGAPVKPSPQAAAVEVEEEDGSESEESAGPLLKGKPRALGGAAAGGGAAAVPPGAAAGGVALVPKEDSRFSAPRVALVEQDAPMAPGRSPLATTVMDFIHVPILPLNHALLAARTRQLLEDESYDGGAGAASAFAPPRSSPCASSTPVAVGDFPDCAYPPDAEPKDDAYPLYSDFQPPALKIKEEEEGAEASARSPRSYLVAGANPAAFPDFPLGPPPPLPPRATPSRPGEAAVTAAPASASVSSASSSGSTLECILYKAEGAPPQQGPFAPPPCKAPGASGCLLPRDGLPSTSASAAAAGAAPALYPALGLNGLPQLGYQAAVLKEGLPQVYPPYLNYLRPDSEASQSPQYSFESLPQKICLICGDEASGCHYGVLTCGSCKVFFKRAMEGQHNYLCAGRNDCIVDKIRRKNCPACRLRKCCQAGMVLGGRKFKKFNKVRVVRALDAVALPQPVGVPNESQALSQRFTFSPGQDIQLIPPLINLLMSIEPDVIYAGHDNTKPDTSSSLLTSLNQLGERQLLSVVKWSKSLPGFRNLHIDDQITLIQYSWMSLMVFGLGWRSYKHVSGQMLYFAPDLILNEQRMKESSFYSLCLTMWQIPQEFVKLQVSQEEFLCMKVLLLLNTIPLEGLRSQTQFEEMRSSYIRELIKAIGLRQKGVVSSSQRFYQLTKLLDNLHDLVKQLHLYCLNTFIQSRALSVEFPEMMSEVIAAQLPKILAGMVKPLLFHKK
# In short: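 SK-N-MC neuroblastoma cells stably expressing human PR-B or PR-A plus MMTV-LUC reporter, treated 24 h with 0.1 nmol/l promegestone plus test compound at 0.01 nmol/l–1 μmol/l. Luciferase in lysates read as RLU; values as % efficacy and IC50.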
# [2] = target: T2, human progesterone receptor B (Homo sapiens, UniProt P06401); assay: Progesterone-receptor-antagonistic action in stably transfected SK-N-MC cells, MTV-LUC reporter (PR-B); format: cell-based; conditions: antagonistic potency vs 0.1 nmol/l promegestone, 24 hours, luciferase
# T2 construct: expressed in transfected cells; host or cells: SK-N-MC human neuroblastoma cells, stably transfected
# T2 sequence (P06401 1-933): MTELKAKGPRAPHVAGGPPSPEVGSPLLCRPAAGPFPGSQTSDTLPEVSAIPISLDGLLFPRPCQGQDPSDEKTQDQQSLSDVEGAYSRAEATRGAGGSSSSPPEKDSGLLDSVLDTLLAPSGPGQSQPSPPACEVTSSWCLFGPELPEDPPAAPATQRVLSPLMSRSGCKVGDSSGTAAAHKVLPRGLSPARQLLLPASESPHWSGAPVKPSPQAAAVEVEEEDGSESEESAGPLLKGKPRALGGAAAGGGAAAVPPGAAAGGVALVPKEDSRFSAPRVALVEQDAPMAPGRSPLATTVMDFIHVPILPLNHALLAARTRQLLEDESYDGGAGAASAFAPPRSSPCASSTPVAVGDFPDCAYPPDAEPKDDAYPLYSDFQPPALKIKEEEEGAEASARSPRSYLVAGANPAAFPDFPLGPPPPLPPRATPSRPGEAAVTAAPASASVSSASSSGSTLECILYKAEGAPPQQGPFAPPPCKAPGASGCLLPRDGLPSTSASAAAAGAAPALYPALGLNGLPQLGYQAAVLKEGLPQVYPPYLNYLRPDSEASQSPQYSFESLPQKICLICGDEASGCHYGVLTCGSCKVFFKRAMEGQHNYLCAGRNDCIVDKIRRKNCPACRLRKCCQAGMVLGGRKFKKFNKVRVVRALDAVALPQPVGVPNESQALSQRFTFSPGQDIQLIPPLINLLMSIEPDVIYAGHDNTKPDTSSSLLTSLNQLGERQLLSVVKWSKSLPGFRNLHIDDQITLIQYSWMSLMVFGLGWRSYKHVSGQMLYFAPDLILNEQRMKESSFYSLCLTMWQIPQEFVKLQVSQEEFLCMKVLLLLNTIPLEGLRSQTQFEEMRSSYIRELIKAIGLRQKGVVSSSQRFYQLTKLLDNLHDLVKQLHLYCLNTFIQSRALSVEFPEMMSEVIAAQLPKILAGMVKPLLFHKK
# Procedure: Progesterone-Receptor-Antagonistic Action in Stable Transfectants of Human Neuroblastoma Cells (SK-N-MC Cells) with the Human Progesterone A or Progesterone B Receptor and an MTV-LUC Reporter Construct
# SK-N-MC cells (human neuroblastoma cells) that have been stably transfected with plasmids that express the human progesterone receptor B (pRChPR-B-neo) or the human progesterone receptor A (pRChPR-A-neo) and a reporter construct (pMMTV-LUC), were incubated for 24 hours either in the absence (negative control) or in the presence of increasing amounts of the particular test compound (0.01 nmol/l, 0.1 nmol/l, 1 nmol/l, 10 nmol/l, 100 nmol/l and 1 μmol/l), to determine the agonistic efficacy. As positive control of reporter gene induction, the cells were treated with the synthetic gestagen promegestone (0.01 nmol/l, 0.1 nmol/l, 1 nmol/l, 10 nmol/l, 100 nmol/l and 1 μmol/l). For determination of the antagonistic activity, the cells were treated with 0.1 nmol/l promegestone and additionally with increasing amounts of the particular test compound (0.01 nmol/l, 0.1 nmol/l, 1 nmol/l, 10 nmol/l, 100 nmol/l and 1 μmol/l). The activity of the reporter gene LUC (LUC=luciferase) was determined in the cell lysates and was measured as RLU (relative light units). All measured values are given as % efficacy and as EC50 or IC50 concentrations.
Compound,IC50 [1] [nM],IC50 [2] [nM]
"COC(=O)C1CCN(C(=O)c2ccc([C@H]3C[C@@]4(C)[C@@H](CC[C@@]4(O)C(F)(F)C(F)(F)F)[C@@H]4CCC5=CC(=O)CCC5=C43)cc2)CC1 [Example 6, methyl-1-{4-[(11β,17β)-17-hydroxy-3-oxo-17-(pentafluoroethyl)estra-4,9-dien-11-yl]benzoyl}piperidine-4-carboxylate]",9.1,11
"COC(=O)c1ccccc1NC(=O)c1ccc([C@H]2C[C@@]3(C)[C@@H](CC[C@@]3(O)C(F)(F)C(F)(F)F)[C@@H]3CCC4=CC(=O)CCC4=C32)cc1 [Example 10, methyl-2-({4-[(11β,17β)-17-hydroxy-3-oxo-17-(pentafluoroethyl)estra-4,9-dien-11-yl]benzoyl}amino)benzoate]",0.7,1
"C[C@]12C[C@H](c3ccc(C(=O)N4CCCCC4)cc3)C3=C4CCC(=O)C=C4CC[C@H]3[C@@H]1CC[C@@]2(O)C(F)(F)C(F)(F)F [Example 5, (11β,17β)-17-hydroxy-17-(pentafluoroethyl)-11-[4-(piperidin-1-ylcarbonyl)phenyl]estra-4,9-dien-3-one]",4.7,5
"CN(C)C(=O)c1ccc([C@H]2C[C@@]3(C)[C@@H](CC[C@@]3(O)C(F)(F)C(F)(F)F)[C@@H]3CCC4=CC(=O)CCC4=C32)cc1 [Example 2, 4-[(11β,17β)-17-Hydroxy-3-oxo-17-(pentafluoroethyl)estra-4,9-dien-11-yl]-N,N-dimethylbenzamide]",2.3,1.2
"CC(C)(C)OC(=O)N1CCN(C(=O)c2ccc([C@H]3C[C@@]4(C)[C@@H](CC[C@@]4(O)C(F)(F)C(F)(F)F)[C@@H]4CCC5=CC(=O)CCC5=C43)cc2)CC1 [Example 4, tert-butyl-4-{4-[(11β,17β)-17-hydroxy-3-oxo-17-(pentafluoroethyl)estra-4,9-dien-11-yl]benzoyl}piperazine-1-carboxylate]",0.62,1.6
"CN(CCc1ccccc1)C(=O)c1ccc([C@H]2C[C@@]3(C)[C@@H](CC[C@@]3(O)C(F)(F)C(F)(F)F)[C@@H]3CCC4=CC(=O)CCC4=C32)cc1 [Example 43, 4-[(11β,17β)-17-hydroxy-3-oxo-17-(pentafluoroethyl)estra-4,9-dien-11-yl]-N-methyl-N-(2-phenylethyl)benzamide]",10.8,–
"CN(Cc1ccccc1)C(=O)c1ccc([C@H]2C[C@@]3(C)[C@@H](CC[C@@]3(O)C(F)(F)C(F)(F)F)[C@@H]3CCC4=CC(=O)CCC4=C32)cc1 [Example 51, N-benzyl-4-[(11β,17β)-17-hydroxy-3-oxo-17-(pentafluoroethyl)estra-4,9-dien-11-yl]-N-methylbenzamide]",9,–

# Continued by falling IC50 [1], values first:
IC50 [1] [nM],IC50 [2] [nM],Compound
54,30,"CN(C)CCNC(=O)c1ccc([C@H]2C[C@@]3(C)[C@@H](CC[C@@]3(O)C(F)(F)C(F)(F)F)[C@@H]3CCC4=CC(=O)CCC4=C32)cc1 [Example 7, N-[2-(dimethylamino)ethyl]-4-[(11β,17β)-17-hydroxy-3-oxo-17-(pentafluoroethyl)estra-4,9-dien-11-yl]benzamide]"
47,33,"CN(C)CCCNC(=O)c1ccc([C@H]2C[C@@]3(C)[C@@H](CC[C@@]3(O)C(F)(F)C(F)(F)F)[C@@H]3CCC4=CC(=O)CCC4=C32)cc1 [Example 8, N-[3-(dimethylamino)propyl]-4-[(11β,17β)-17-hydroxy-3-oxo-17-(pentafluoroethyl)estra-4,9-dien-11-yl]benzamide]"
47,120,"C[C@]12C[C@H](c3ccc(C(=O)N4CCNCC4)cc3)C3=C4CCC(=O)C=C4CC[C@H]3[C@@H]1CC[C@@]2(O)C(F)(F)C(F)(F)F [Example 73, (11β,17β)-17-Hydroxy-17-(pentafluoroethyl)-11-[4-(piperazin-1-ylcarbonyl)phenyl]estra-4,9-dien-3-one]"
24,44,"CN1CCN(C(=O)c2ccc([C@H]3C[C@@]4(C)[C@@H](CC[C@@]4(O)C(F)(F)C(F)(F)F)[C@@H]4CCC5=CC(=O)CCC5=C43)cc2)CC1 [Example 3, (11β,17β)-17-hydroxy-11-{4-[(4-methylpiperazin-1-yl)carbonyl]phenyl}-17-(pentafluoroethyl)estra-4,9-dien-3-one]"
23,10,"C[C@]12C[C@H](c3ccc(C(=O)N4CCC(C(=O)O)CC4)cc3)C3=C4CCC(=O)C=C4CC[C@H]3[C@@H]1CC[C@@]2(O)C(F)(F)C(F)(F)F [Example 75, 1-{4-[(11β,17β)-17-Hydroxy-3-oxo-17-(pentafluoroethyl)estra-4,9-dien-11-yl]benzoyl}piperidine-4-carboxylic acid]"
23,18,"CN(C)CCN(C)C(=O)c1ccc([C@H]2C[C@@]3(C)[C@@H](CC[C@@]3(O)C(F)(F)C(F)(F)F)[C@@H]3CCC4=CC(=O)CCC4=C32)cc1 [Example 9, N-[2-(dimethylamino)ethyl]-4-[(11β,17β)-17-hydroxy-3-oxo-17-(pentafluoroethyl)estra-4,9-dien-11-yl]-N-methylbenzamide]"
6.7,12,"CC(=O)N1CCN(C(=O)c2ccc([C@H]3C[C@@]4(C)[C@@H](CC[C@@]4(O)C(F)(F)C(F)(F)F)[C@@H]4CCC5=CC(=O)CCC5=C43)cc2)CC1 [Example 74, (11β,17β)-11-{4-[(4-Acetylpiperazin-1-yl)carbonyl]phenyl}-17-hydroxy-17-(pentafluoroethyl)estra-4,9-dien-3-one]"
